Assay results published in paper PMC7300217, “Surfactin Like Broad Spectrum Antimicrobial Lipopeptide Co-produced With Sublancin From Bacillus subtilis Strain A52: Dual Reservoir of Bioactives” (Frontiers in Microbiology, 2020).
≈ marks a conversion by molar mass, not a printed value. One block for each molecule: values may come before it.

What was measured:
[1] = test system: C. aurius 470126 (clinical isolate); assay: MIC, microtiter plate dilution assay; type: cell-based; details: 5 × 10^5 CFU/ml, 37°C, OD600 after 48 h, triplicate
Description: (§1) The antimicrobial activity was tested by well diffusion assay as mentioned earlier ([Singh et al., 2014]). Strain A52 was grown for 24 h in 500 ml of nutrient broth (NB, Hi-media, India) using 1000 ml flask and subsequently cells were removed by centrifugation (10,000 rpm for 15 min at 4°C). Supernatant was filtered through 0.22 μm filter (Millipore, United States) to obtain cell-free fermented broth (CFB) that was used for antimicrobial assay (50 μl) against various indicator strains and the activity was measured as diameter of inhibition zone. Test strains used were Staphylococcus aureus (MTCC 1430), Bacillus subtilis (MTCC 121), B. firmus (MTCC 488), B. licheniformis (MTCC 429), B. thuringiensis (MTCC 1953), Escherichia coli (MTCC 1610), Micrococcus luteus (MTCC 106), Steptococcus pyrogens (MTCC 1928), S. anginosus (MTCC 1929), S. oralis (MTCC 2696), S. mutans (MTCC 497), Candida albicans (MTCC 1637), C. albicans (MTCC 183), C. albicans (MTCC 227), C. tropicalis (MTCC 184), C. glabrata (MTCC 3019), C. haemulonii (MTCC 2766), and C. inconsplicue (MTCC 1074). The phytopathogenic fungi employed in this study were Alternaria brassicicola (MTCC 2102), Colletotrichum acutatum (MTCC 1037), and Fusarium moniliforme (MTCC 158). Clinical isolates of Candida were provided by National Culture Collection of Pathogenic Fungi (NCCPF), PGIMER, Chandigarh, India.
(§2) The minimum inhibitory concentration (MIC) of HPLC purified peptides was evaluated by using microtiter plate dilution assay. The peptide concentration was estimated using BCA protein assay (Thermo Fisher Scientific, United States) method as described by manufacturer. Actively growing test strains (5 × 10^5 CFU/ml) were inoculated in a 96-well plate with different concentrations of the peptides and plates were incubated for 24–48 h at 37°C (final volume in each well is 200 μl). OD was measured at 600 nm after 24 and 48 h for bacteria and yeast, respectively, using ELISA microplate reader (Thermo, United States). MIC against phytopathogenic fungi was determined using 96-well microtiter plate assay ([Kaur et al., 2016]). In 96-well microplates, 100 μl of fungal spore suspension (1 × 10^5 spores/ml) prepared in potato dextrose broth (PDB, Hi-media, India) was mixed with100 μl of fresh PDB containing different concentrations of lipopeptide. Control well contained 100 μl of fungal spore suspension and 100 μl of only medium. The microplates were incubated at 25°C and readings were recorded at 600 nm after 48 h. The lowest concentration showing no growth was considered as MIC. Each test was done in triplicate and optical density (OD600) of peptide treated wells were compared with uninoculated wells (blank medium control).

[2] = test system: C. glabrata MTCC 3019; assay: MIC, microtiter plate dilution assay; type: cell-based; details: Nakaseomyces glabratus, MTCC3019; 5 × 10^5 CFU/ml, 37°C, OD600 after 48 h, triplicate
Description: as §1, §2

[3] = test system: C. glabrata SKSS ID (clinical isolate); assay: MIC, microtiter plate dilution assay; type: cell-based; details: Nakaseomyces glabratus, 5 × 10^5 CFU/ml, 37°C, OD600 after 48 h, triplicate
Description: as §1, §2

[4] = test system: C. haemulonii 470125 (clinical isolate); assay: MIC, microtiter plate dilution assay; type: cell-based; details: Candidozyma haemuli, 5 × 10^5 CFU/ml, 37°C, OD600 after 48 h, triplicate
Description: as §1, §2

[5] = test system: C. haemulonii MTCC 2766; assay: MIC, microtiter plate dilution assay; type: cell-based; details: Candidozyma haemuli, MTCC2766; 5 × 10^5 CFU/ml, 37°C, OD600 after 48 h, triplicate
Description: as §1, §2

[6] = test system: C. inconsplicue MTCC 1074; assay: MIC, microtiter plate dilution assay; type: cell-based; details: 5 × 10^5 CFU/ml, 37°C, OD600 after 48 h, triplicate
Description: as §1, §2

[7] = test system: C. kefyr 410004 (clinical isolate); assay: MIC, microtiter plate dilution assay; type: cell-based; details: Kluyveromyces marxianus, 5 × 10^5 CFU/ml, 37°C, OD600 after 48 h, triplicate
Description: as §1, §2

[8] = test system: C. krusei 440009 (clinical isolate); assay: MIC, microtiter plate dilution assay; type: cell-based; details: Pichia kudriavzevii, 5 × 10^5 CFU/ml, 37°C, OD600 after 48 h, triplicate
Description: as §1, §2

[9] = test system: C. parasilosis 450030 (clinical isolate); assay: MIC, microtiter plate dilution assay; type: cell-based; details: 5 × 10^5 CFU/ml, 37°C, OD600 after 48 h, triplicate
Description: as §1, §2

[10] = test system: C. rugos 470141 (clinical isolate); assay: MIC, microtiter plate dilution assay; type: cell-based; details: 5 × 10^5 CFU/ml, 37°C, OD600 after 48 h, triplicate
Description: as §1, §2

[11] = test system: C. tropicalis 420024 (clinical isolate); assay: MIC, microtiter plate dilution assay; type: cell-based; details: Candida tropicalis, 5 × 10^5 CFU/ml, 37°C, OD600 after 48 h, triplicate
Description: as §1, §2

[12] = test system: C. tropicalis MTCC 184; assay: MIC, microtiter plate dilution assay; type: cell-based; details: Candida tropicalis, MTCC184; 5 × 10^5 CFU/ml, 37°C, OD600 after 48 h, triplicate
Description: as §1, §2

[13] = test system: C. albicans 400054 (clinical isolate); assay: MIC, microtiter plate dilution assay; type: cell-based, Candida albicans; details: Candida albicans, 5 × 10^5 CFU/ml, 37°C, OD600 after 48 h, triplicate
Description: as §1, §2

[14] = test system: C. albicans MTCC 1637; assay: MIC, microtiter plate dilution assay; type: cell-based, Candida albicans; details: Candida albicans, MTCC1637; 5 × 10^5 CFU/ml, 37°C, OD600 after 48 h, triplicate
Description: as §1, §2

[15] = test system: C. albicans MTCC 183; assay: MIC, microtiter plate dilution assay; type: cell-based, Candida albicans; details: Candida albicans, MTCC183; 5 × 10^5 CFU/ml, 37°C, OD600 after 48 h, triplicate
Description: as §1, §2

[16] = test system: C. albicans MTCC 227; assay: MIC, microtiter plate dilution assay; type: cell-based, Candida albicans; details: Candida albicans, MTCC227; 5 × 10^5 CFU/ml, 37°C, OD600 after 48 h, triplicate
Description: as §1, §2

[17] = test system: A. brassicicola MTCC 2102; assay: MIC against phytopathogenic fungi, 96-well microtiter plate assay; type: cell-based, Alternaria brassicicola; details: Alternaria brassicicola, MTCC2102; 1 × 10^5 spores/ml in PDB, 25°C, OD600 after 48 h, triplicate
Description: (§3) The antimicrobial activity was tested by well diffusion assay as mentioned earlier ([Singh et al., 2014]). Strain A52 was grown for 24 h in 500 ml of nutrient broth (NB, Hi-media, India) using 1000 ml flask and subsequently cells were removed by centrifugation (10,000 rpm for 15 min at 4°C). Supernatant was filtered through 0.22 μm filter (Millipore, United States) to obtain cell-free fermented broth (CFB) that was used for antimicrobial assay (50 μl) against various indicator strains and the activity was measured as diameter of inhibition zone. […]
(§4) The minimum inhibitory concentration (MIC) of HPLC purified peptides was evaluated by using microtiter plate dilution assay. […] OD was measured at 600 nm after 24 and 48 h for bacteria and yeast, respectively, using ELISA microplate reader (Thermo, United States). MIC against phytopathogenic fungi was determined using 96-well microtiter plate assay ([Kaur et al., 2016]). […] The microplates were incubated at 25°C and readings were recorded at 600 nm after 48 h. […]

[18] = test system: F. moniliforme MTCC 158; assay: as above; type: cell-based, Fusarium moniliforme; details: Fusarium verticillioides, MTCC158; 1 × 10^5 spores/ml in PDB, 25°C, OD600 after 48 h, triplicate
Description: as §1
as §4, with “assay. The peptide concentration was estimated using BCA protein assay (Thermo Fisher Scientific, United States) method as described by manufacturer.” for “assay.”

[19] = test system: S. anginosus MTCC1929; assay: MIC, microtiter plate dilution assay; type: cell-based; details: Streptococcus anginosus, MTCC1929; 5 × 10^5 CFU/ml, 37°C, OD600 after 24 h, triplicate
Description: as §1, §2

[20] = test system: S. mutans MTCC 497; assay: MIC, microtiter plate dilution assay; type: cell-based; details: Streptococcus mutans, MTCC497; 5 × 10^5 CFU/ml, 37°C, OD600 after 24 h, triplicate
Description: as §1, §2

[21] = test system: S. oralis MTCC 2696; assay: MIC, microtiter plate dilution assay; type: cell-based; details: Streptococcus oralis, MTCC2696; 5 × 10^5 CFU/ml, 37°C, OD600 after 24 h, triplicate
Description: as §1, §2

[22] = test system: S. pyogenes MTCC 1928; assay: MIC, microtiter plate dilution assay; type: cell-based; details: Streptococcus pyogenes, MTCC1928; 5 × 10^5 CFU/ml, 37°C, OD600 after 24 h, triplicate
Description: as §1, §2

[23] = test system: S. aureus MTCC 1430; assay: MIC, microtiter plate dilution assay; type: cell-based, Staphylococcus aureus; details: Staphylococcus aureus, MTCC1430; 5 × 10^5 CFU/ml, 37°C, OD600 after 24 h, triplicate
Description: as §3, §4

[24] = test system: B. subtilis MTCC 121; assay: MIC, microtiter plate dilution assay; type: cell-based, Bacillus subtilis; details: Bacillus subtilis, MTCC121; 5 × 10^5 CFU/ml, 37°C, OD600 after 24 h, triplicate
Description: as §3, §4

[25] = test system: B. cereus MTCC 430; assay: MIC, microtiter plate dilution assay; type: cell-based; details: Bacillus cereus, MTCC430; 5 × 10^5 CFU/ml, 37°C, OD600 after 24 h, triplicate
Description: as §2

[26] = test system: B. coagulans MTCC 492; assay: MIC, microtiter plate dilution assay; type: cell-based; details: Heyndrickxia coagulans, MTCC492; 5 × 10^5 CFU/ml, 37°C, OD600 after 24 h, triplicate
Description: as §2

[27] = test system: M. luteus MTCC 106; assay: MIC, microtiter plate dilution assay; type: cell-based, Micrococcus luteus; details: Micrococcus luteus, MTCC106; 5 × 10^5 CFU/ml, 37°C, OD600 after 24 h, triplicate
Description: as §3, §4

[28] = test system: E. coli MTCC 1610; assay: MIC, microtiter plate dilution assay; type: cell-based, Escherichia coli; details: Escherichia coli, MTCC1610; 5 × 10^5 CFU/ml, 37°C, OD600 after 24 h, triplicate
Description: as §3, §4

[29] = test system: skin of BALB/c female mice; assay: Skin irritation study (Draize test); type: in vivo; details: topical, about 1 cm^2 hairless dorsal skin, score 0 none, 1 slight, 2 moderate, 3 severe, mean
Description: Skin irritation potential of lipopetide based emulgel formulation was evaluated by carrying out skin irritancy test using 8 weeks old BALB/c female mice ([Draize et al., 1944]). Mice dorsal surface hair was removed without damaging the skin surface about 24 h prior to the experiment. Mice were divided into three groups (n = 3): […] Group II: plain gel (negative control); and Group III: […] emulgel. The formulation was topically applied to the hairless skin area (approximately 1 cm^2) and observations were recorded at 24, 48, and 72 h.

- MIC [1]: 5 µg/mL (≈ 5.41 µM)
- MIC [2]: 25 µg/mL (≈ 27.1 µM)
- MIC [3]: 100 µg/mL (≈ 108 µM)
- MIC [4]: 50 µg/mL (≈ 54.1 µM)
- MIC [5]: 100 µg/mL (≈ 108 µM)
- MIC [6]: 10 µg/mL (≈ 10.8 µM)
- MIC [7]: 50 µg/mL (≈ 54.1 µM)
- MIC [8]: 5 µg/mL (≈ 5.41 µM)
- MIC [9]: 50 µg/mL (≈ 54.1 µM)
- MIC [10]: 5 µg/mL (≈ 5.41 µM)
- MIC [11]: 50 µg/mL (≈ 54.1 µM)
- MIC [12]: 35 µg/mL (≈ 37.9 µM)
- MIC [13]: 5 µg/mL (≈ 5.41 µM)
- MIC [14]: 5 µg/mL (≈ 5.41 µM)
- MIC [15]: 5 µg/mL (≈ 5.41 µM)
- MIC [16]: 5 µg/mL (≈ 5.41 µM)
- MIC [17]: 50 µg/mL (≈ 54.1 µM)
- MIC [18]: 50 µg/mL (≈ 54.1 µM)
SMILES: C[C@@H]1[C@H](O)[C@@H](C)/C=C/C=C/C=C/C=C/C=C/C=C/C=C/[C@H](O[C@@H]2O[C@H](C)[C@@H](O)[C@H](N)[C@@H]2O)C[C@@H]2O[C@](O)(C[C@@H](O)C[C@@H](O)[C@H](O)CC[C@@H](O)C[C@@H](O)CC(=O)O[C@H]1C)C[C@H](O)[C@H]2C(=O)O [Amphotericin B, reference compound]

- MIC [19]: 0.25 µg/mL (≈ 0.715 µM)
- MIC [20]: 0.4 µg/mL (≈ 1.14 µM)
- MIC [21]: 0.4 µg/mL (≈ 1.14 µM)
- MIC [22]: 0.03 µg/mL (≈ 0.0859 µM)
- MIC [23]: 0.25 µg/mL (≈ 0.715 µM)
- MIC [24]: 0.5 µg/mL (≈ 1.43 µM)
- MIC [25]: 0.5 µg/mL (≈ 1.43 µM)
- MIC [26]: 0.5 µg/mL (≈ 1.43 µM)
- MIC [27]: 0.2 µg/mL (≈ 0.572 µM)
- MIC [28]: 1 µg/mL (≈ 2.86 µM)
SMILES: CC1(C)S[C@@H]2[C@H](NC(=O)[C@H](N)c3ccccc3)C(=O)N2[C@H]1C(=O)O [Ampicillin, reference compound]

- MIC [6]: 50 µg/mL (≈ 163 µM)
- MIC [8]: 1 µg/mL (≈ 3.27 µM)
- MIC [9]: 10 µg/mL (≈ 32.7 µM)
- MIC [10]: 5 µg/mL (≈ 16.3 µM)
- MIC [15]: 20 µg/mL (≈ 65.3 µM)
- MIC [18]: 10 µg/mL (≈ 32.7 µM)
SMILES: OC(Cn1cncn1)(Cn1cncn1)c1ccc(F)cc1F [Fluconazole]

SMILES: CCCCCCCCCCCCOS(=O)(=O)[O-].[Na+] [Positive Control, sodium lauryl sulfate]
- Erythema score (n=3), 0 h [29]: 0
- Erythema score (n=3), 24h [29]: 3
- Erythema score (n=3), 48h [29]: 3
- Erythema score (n=3), 72h [29]: 3
